What was measured:
Test in all cases: relative viability (nuclei count vs DMSO), 5 days (fraction); higher = more cells survive
[1] = tested on: NCI-H1299
Method in brief: (§1)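 Lung cancer cell lines in 1536-well plates got either a single drug or a fixed anchor-drug dose together with five library-drug doses (not always all listed) in √10 steps, by pin tool, on the day after seeding. Nuclei were counted after 5 days, and relative viability is the treated-to-vehicle ratio of nuclei counts. Values are medians of duplicate plates.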

[2] = tested on: NCI-H2009
Method in brief: as §1

[3] = tested on: NCI-H1703
Method in brief: as §1

[4] = tested on: EBC-1
Method in brief: as §1

[5] = tested on: Calu-6
Method in brief: as §1

[6] = tested on: A549
Method in brief: as §1

[7] = tested on: NCI-H661
Method in brief: as §1

[8] = tested on: NCI-H460
Method in brief: as §1

[9] = tested on: IA-LM
Method in brief: as §1

## O=C(O)c1ccc(-c2c[nH]c3ncc(-c4ccccc4)cc23)cc1C1CCCC1 + C[C@]1(O)C[C@@H](c2nc(-c3ccc4ccc(-c5ccccc5)nc4c3)c3c(N)nccn32)C1 [Linsitinib] (partner 1 µM)
[1]; first compound 0.04 µM
  relative viability: 0.933
[1]; first compound 0.1265 µM
  relative viability: 1.02
[1]; first compound 0.4 µM
  relative viability: 1.04
[1]; first compound 1.265 µM
  relative viability: 0.918
[2]; first compound 0.04 µM
  relative viability: 1.23
[2]; first compound 0.1265 µM
  relative viability: 1.21
[2]; first compound 0.4 µM
  relative viability: 1.15
[2]; first compound 1.265 µM
  relative viability: 1.08
[3]; first compound 0.04 µM
  relative viability: 0.647
[3]; first compound 0.1265 µM
  relative viability: 1.06
[3]; first compound 0.4 µM
  relative viability: 1.06
[3]; first compound 1.265 µM
  relative viability: 0.898
[4]; first compound 0.04 µM
  relative viability: 0.862
[4]; first compound 0.1265 µM
  relative viability: 0.903
[4]; first compound 0.4 µM
  relative viability: 0.956
[4]; first compound 1.265 µM
  relative viability: 0.697
[5]; first compound 0.04 µM
  relative viability: 0.86
[5]; first compound 0.1265 µM
  relative viability: 1.17
[5]; first compound 0.4 µM
  relative viability: 0.892
[5]; first compound 1.265 µM
  relative viability: 0.781
[6]; first compound 0.04 µM
  relative viability: 0.622
[6]; first compound 0.1265 µM
  relative viability: 0.719
[6]; first compound 0.4 µM
  relative viability: 0.717
[6]; first compound 1.265 µM
  relative viability: 0.505
[7]; first compound 0.04 µM
  relative viability: 0.576
[7]; first compound 0.1265 µM
  relative viability: 0.603
[7]; first compound 0.4 µM
  relative viability: 0.572
[7]; first compound 1.265 µM
  relative viability: 0.736
[8]; first compound 0.04 µM
  relative viability: 0.783
[8]; first compound 0.1265 µM
  relative viability: 0.989
[8]; first compound 0.4 µM
  relative viability: 0.753
[8]; first compound 1.265 µM
  relative viability: 0.662
[9]; first compound 0.04 µM
  relative viability: 0.558
[9]; first compound 0.1265 µM
  relative viability: 0.685
[9]; first compound 0.4 µM
  relative viability: 0.712
[9]; first compound 1.265 µM
  relative viability: 0.513

## C=C1C(=O)O[C@@H](CCCCCCCC)[C@@H]1C(=O)O [C-75] + CS(=O)(=O)N1CCN(Cc2cc3nc(-c4cccc5[nH]ncc45)nc(N4CCOCC4)c3s2)CC1 [Pictilisib] (partner 1 µM)
[1]; first compound 0.08 µM
  relative viability: 0.785
[1]; first compound 0.253 µM
  relative viability: 0.825
[1]; first compound 0.8 µM
  relative viability: 0.737
[1]; first compound 2.53 µM
  relative viability: 0.826
[1]; first compound 8 µM
  relative viability: 0.634
[2]; first compound 0.08 µM
  relative viability: 0.789
[2]; first compound 0.253 µM
  relative viability: 0.96
[2]; first compound 0.8 µM
  relative viability: 0.789
[2]; first compound 2.53 µM
  relative viability: 0.428
[2]; first compound 8 µM
  relative viability: 0.6
[3]; first compound 0.08 µM
  relative viability: 0.247
[3]; first compound 0.253 µM
  relative viability: 0.266
[3]; first compound 0.8 µM
  relative viability: 0.235
[3]; first compound 2.53 µM
  relative viability: 0.214
[3]; first compound 8 µM
  relative viability: 0.249
[4]; first compound 0.08 µM
  relative viability: 0.43
[4]; first compound 0.253 µM
  relative viability: 0.355
[4]; first compound 0.8 µM
  relative viability: 0.315
[4]; first compound 2.53 µM
  relative viability: 0.361
[4]; first compound 8 µM
  relative viability: 0.179
[5]; first compound 0.08 µM
  relative viability: 0.985
[5]; first compound 0.253 µM
  relative viability: 1.07
[5]; first compound 0.8 µM
  relative viability: 0.811
[5]; first compound 2.53 µM
  relative viability: 0.714
[5]; first compound 8 µM
  relative viability: 0.817
[6]; first compound 0.08 µM
  relative viability: 0.475
[6]; first compound 0.253 µM
  relative viability: 0.571
[6]; first compound 0.8 µM
  relative viability: 0.514
[6]; first compound 2.53 µM
  relative viability: 0.309
[6]; first compound 8 µM
  relative viability: 0.497
[7]; first compound 0.08 µM
  relative viability: 0.398
[7]; first compound 0.253 µM
  relative viability: 0.493
[7]; first compound 0.8 µM
  relative viability: 0.355
[7]; first compound 2.53 µM
  relative viability: 0.315
[7]; first compound 8 µM
  relative viability: 0.382
[8]; first compound 0.08 µM
  relative viability: 0.396
[8]; first compound 0.253 µM
  relative viability: 0.472
[8]; first compound 0.8 µM
  relative viability: 0.303
[8]; first compound 8 µM
  relative viability: 0.348
[9]; first compound 0.08 µM
  relative viability: 0.448
[9]; first compound 0.253 µM
  relative viability: 0.294
[9]; first compound 0.8 µM
  relative viability: 0.266
[9]; first compound 2.53 µM
  relative viability: 0.358
[9]; first compound 8 µM
  relative viability: 0.375

## NC(=O)Nc1cc(-c2cccc(F)c2)sc1C(=O)N[C@H]1CCCNC1 [AZD7762] + CC(C)C[C@H](NC(=O)[C@H](Cc1ccccc1)NC(=O)c1cnccn1)B(O)O [Bortezomib] (partner 0.002 µM)
[1]; first compound 0.01 µM
  relative viability: 1.07
[1]; first compound 0.03162 µM
  relative viability: 1.04
[1]; first compound 0.1 µM
  relative viability: 1.04
[1]; first compound 0.3162 µM
  relative viability: 1.04
[1]; first compound 1 µM
  relative viability: 0.964
[2]; first compound 0.01 µM
  relative viability: 0.904
[2]; first compound 0.03162 µM
  relative viability: 1.13
[2]; first compound 0.1 µM
  relative viability: 1.08
[2]; first compound 0.3162 µM
  relative viability: 0.839
[2]; first compound 1 µM
  relative viability: 0.794
[3]; first compound 0.01 µM
  relative viability: 0.409
[3]; first compound 0.03162 µM
  relative viability: 0.182
[3]; first compound 0.1 µM
  relative viability: 0.167
[3]; first compound 0.3162 µM
  relative viability: 0.176
[3]; first compound 1 µM
  relative viability: 0.124
[4]; first compound 0.01 µM
  relative viability: 0.633
[4]; first compound 0.03162 µM
  relative viability: 0.508
[4]; first compound 0.1 µM
  relative viability: 0.566
[4]; first compound 0.3162 µM
  relative viability: 0.493
[4]; first compound 1 µM
  relative viability: 0.309
[5]; first compound 0.01 µM
  relative viability: 1.03
[5]; first compound 0.03162 µM
  relative viability: 0.96
[5]; first compound 0.1 µM
  relative viability: 0.782
[5]; first compound 0.3162 µM
  relative viability: 0.245
[5]; first compound 1 µM
  relative viability: 0.152
[7]; first compound 0.01 µM
  relative viability: 0.828
[7]; first compound 0.03162 µM
  relative viability: 0.938
[7]; first compound 0.1 µM
  relative viability: 0.766
[7]; first compound 0.3162 µM
  relative viability: 0.681
[7]; first compound 1 µM
  relative viability: 0.382
[8]; first compound 0.01 µM
  relative viability: 1.18
[8]; first compound 0.03162 µM
  relative viability: 1.04
[8]; first compound 0.1 µM
  relative viability: 1.18
[8]; first compound 0.3162 µM
  relative viability: 0.88
[8]; first compound 1 µM
  relative viability: 0.0988
[9]; first compound 0.01 µM
  relative viability: 1.05
[9]; first compound 0.03162 µM
  relative viability: 0.851
[9]; first compound 0.1 µM
  relative viability: 1.22
[9]; first compound 0.3162 µM
  relative viability: 1.14
[9]; first compound 1 µM
  relative viability: 0.253

## NC(=O)Nc1cc(-c2cccc(F)c2)sc1C(=O)N[C@H]1CCCNC1 [AZD7762] + C[C@]1(O)C[C@@H](c2nc(-c3ccc4ccc(-c5ccccc5)nc4c3)c3c(N)nccn32)C1 [Linsitinib] (partner 1 µM)
[1]; first compound 0.01 µM
  relative viability: 0.99
[1]; first compound 0.03162 µM
  relative viability: 0.995
[1]; first compound 0.1 µM
  relative viability: 1.04
[1]; first compound 0.3162 µM
  relative viability: 1
[1]; first compound 1 µM
  relative viability: 0.323
[2]; first compound 0.01 µM
  relative viability: 1.32
[2]; first compound 0.03162 µM
  relative viability: 1.18
[2]; first compound 0.1 µM
  relative viability: 1.27
[2]; first compound 0.3162 µM
  relative viability: 1.22
[2]; first compound 1 µM
  relative viability: 0.752
[3]; first compound 0.01 µM
  relative viability: 0.688
[3]; first compound 0.03162 µM
  relative viability: 0.164
[3]; first compound 0.1 µM
  relative viability: 0.181
[3]; first compound 0.3162 µM
  relative viability: 0.164
[3]; first compound 1 µM
  relative viability: 0.177
[4]; first compound 0.01 µM
  relative viability: 1.01
[4]; first compound 0.03162 µM
  relative viability: 0.877
[4]; first compound 0.1 µM
  relative viability: 1.03
[4]; first compound 0.3162 µM
  relative viability: 0.884
[4]; first compound 1 µM
  relative viability: 0.76
[5]; first compound 0.01 µM
  relative viability: 1.02
[5]; first compound 0.03162 µM
  relative viability: 0.964
[5]; first compound 0.1 µM
  relative viability: 0.944
[5]; first compound 0.3162 µM
  relative viability: 0.649
[5]; first compound 1 µM
  relative viability: 0.14
[6]; first compound 0.01 µM
  relative viability: 0.564
[6]; first compound 0.03162 µM
  relative viability: 0.577
[6]; first compound 0.1 µM
  relative viability: 0.705
[6]; first compound 0.3162 µM
  relative viability: 0.616
[6]; first compound 1 µM
  relative viability: 0.494
[7]; first compound 0.01 µM
  relative viability: 0.681
[7]; first compound 0.03162 µM
  relative viability: 0.546
[7]; first compound 0.1 µM
  relative viability: 0.444
[7]; first compound 0.3162 µM
  relative viability: 0.501
[7]; first compound 1 µM
  relative viability: 0.293
[8]; first compound 0.01 µM
  relative viability: 0.975
[8]; first compound 0.03162 µM
  relative viability: 0.727
[8]; first compound 0.1 µM
  relative viability: 0.719
[8]; first compound 0.3162 µM
  relative viability: 0.135
[8]; first compound 1 µM
  relative viability: 0.0126
[9]; first compound 0.01 µM
  relative viability: 0.713
[9]; first compound 0.03162 µM
  relative viability: 0.663
[9]; first compound 0.1 µM
  relative viability: 0.629
[9]; first compound 0.3162 µM
  relative viability: 0.628
[9]; first compound 1 µM
  relative viability: 0.47

## O=C(O)c1ccc(-c2c[nH]c3ncc(-c4ccccc4)cc23)cc1C1CCCC1 + CC(C)C[C@H](NC(=O)[C@H](Cc1ccccc1)NC(=O)c1cnccn1)B(O)O [Bortezomib] (partner 0.002 µM)
[1]; first compound 0.04 µM
  relative viability: 1.05
[1]; first compound 0.1265 µM
  relative viability: 1.03
[1]; first compound 0.4 µM
  relative viability: 0.986
[1]; first compound 1.265 µM
  relative viability: 0.893
[2]; first compound 0.04 µM
  relative viability: 0.997
[2]; first compound 0.1265 µM
  relative viability: 0.966
[2]; first compound 0.4 µM
  relative viability: 0.942
[2]; first compound 1.265 µM
  relative viability: 0.794
[3]; first compound 0.1265 µM
  relative viability: 0.235
[3]; first compound 0.4 µM
  relative viability: 0.3
[3]; first compound 1.265 µM
  relative viability: 0.433
[4]; first compound 0.04 µM
  relative viability: 0.567
[4]; first compound 0.1265 µM
  relative viability: 0.583
[4]; first compound 0.4 µM
  relative viability: 0.452
[4]; first compound 1.265 µM
  relative viability: 0.308
[5]; first compound 0.04 µM
  relative viability: 0.912
[5]; first compound 0.1265 µM
  relative viability: 1
[5]; first compound 0.4 µM
  relative viability: 0.907
[5]; first compound 1.265 µM
  relative viability: 0.661
[7]; first compound 0.04 µM
  relative viability: 0.72
[7]; first compound 0.1265 µM
  relative viability: 0.791
[7]; first compound 0.4 µM
  relative viability: 0.82
[7]; first compound 1.265 µM
  relative viability: 0.935
[8]; first compound 0.04 µM
  relative viability: 1.07
[8]; first compound 0.1265 µM
  relative viability: 1.4
[8]; first compound 0.4 µM
  relative viability: 0.999
[8]; first compound 1.265 µM
  relative viability: 0.939
[9]; first compound 0.04 µM
  relative viability: 0.915
[9]; first compound 0.1265 µM
  relative viability: 0.868
[9]; first compound 0.4 µM
  relative viability: 0.761
[9]; first compound 1.265 µM
  relative viability: 0.658
